Source: patent US8192962B2, “Processes for detecting toxic substances” (Daikin Industries, Ltd., priority 2001, dated 2012)

System: Unknown protein yeast genes
Assay: DNA chip mRNA expression in yeast, unknown protein yeast genes (Table 1)
Type: cell-based, Saccharomyces cerevisiae S288C
Procedure, shortened: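 Values are treated/untreated fluorescence ratios from a whole-genome yeast DNA chip hybridized over 12 hours at 65° C with Cy3- or Cy5-labelled cDNA from poly(A) mRNA. Log-phase S288C yeast in YPD at 25° C had received a single toxic chemical for two hours, dosed to slow growth without killing.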

**Q.** How did the “The level of expressed mRNA in the presence of chemical substance/The level of expressed mRNA in the absence of chemical substance” value (yeast gene YKL086W, incubated two hours with chemical substance) turn out when `COc1cc(CNC(=O)CCCCC=CC(C)C)ccc1O` [(12), 8-methyl-N-vanillyl-6-nonenamide] was run?
**A.** 0.6

**Q.** What about the “The level of expressed mRNA in the presence of chemical substance/The level of expressed mRNA in the absence of chemical substance” value (yeast gene YKL151C, incubated two hours with chemical substance) of the same molecule?
**A.** 1.0

**Q.** What about the “The level of expressed mRNA in the presence of chemical substance/The level of expressed mRNA in the absence of chemical substance” value (yeast gene YKL153W, incubated two hours with chemical substance) of the same molecule?
**A.** 1.1

**Q.** And the “The level of expressed mRNA in the presence of chemical substance/The level of expressed mRNA in the absence of chemical substance” value (yeast gene YKL195W, incubated two hours with chemical substance)?
**A.** 1.1

**Q.** And the “The level of expressed mRNA in the presence of chemical substance/The level of expressed mRNA in the absence of chemical substance” value (yeast gene YKR091W, incubated two hours with chemical substance)?
**A.** 0.9

**Q.** And the “The level of expressed mRNA in the presence of chemical substance/The level of expressed mRNA in the absence of chemical substance” value (yeast gene YLR054C, incubated two hours with chemical substance)?
**A.** 1.1

**Q.** What about the “The level of expressed mRNA in the presence of chemical substance/The level of expressed mRNA in the absence of chemical substance” value (yeast gene YLR149C, incubated two hours with chemical substance) of the same molecule?
**A.** 2.0

**Q.** And the “The level of expressed mRNA in the presence of chemical substance/The level of expressed mRNA in the absence of chemical substance” value (yeast gene YLR152C, incubated two hours with chemical substance)?
**A.** 1.0

**Q.** And the “The level of expressed mRNA in the presence of chemical substance/The level of expressed mRNA in the absence of chemical substance” value (yeast gene YLR194C, incubated two hours with chemical substance)?
**A.** 1.6

**Q.** What about the “The level of expressed mRNA in the presence of chemical substance/The level of expressed mRNA in the absence of chemical substance” value (yeast gene YLR324W, incubated two hours with chemical substance) of the same molecule?
**A.** 0.8

**Q.** What about the “The level of expressed mRNA in the presence of chemical substance/The level of expressed mRNA in the absence of chemical substance” value (yeast gene YLR350W, incubated two hours with chemical substance) of the same molecule?
**A.** 1.8

**Q.** And the “The level of expressed mRNA in the presence of chemical substance/The level of expressed mRNA in the absence of chemical substance” value (yeast gene YLR387C, incubated two hours with chemical substance)?
**A.** 1.1

**Q.** What about the “The level of expressed mRNA in the presence of chemical substance/The level of expressed mRNA in the absence of chemical substance” value (yeast gene YLR460C) of the same molecule?
**A.** 0.4

**Q.** What about the “The level of expressed mRNA in the presence of chemical substance/The level of expressed mRNA in the absence of chemical substance” value (yeast gene YML117W, incubated two hours with chemical substance) of the same molecule?
**A.** 0.8

**Q.** And the “The level of expressed mRNA in the presence of chemical substance/The level of expressed mRNA in the absence of chemical substance” value (yeast gene YMR009W, incubated two hours with chemical substance)?
**A.** 0.6

**Q.** What about the “The level of expressed mRNA in the presence of chemical substance/The level of expressed mRNA in the absence of chemical substance” value (yeast gene YMR067C, incubated two hours with chemical substance) of the same molecule?
**A.** 1.1

**Q.** And the “The level of expressed mRNA in the presence of chemical substance/The level of expressed mRNA in the absence of chemical substance” value (yeast gene YMR090W)?
**A.** 2.2

**Q.** What about the “The level of expressed mRNA in the presence of chemical substance/The level of expressed mRNA in the absence of chemical substance” value (yeast gene YMR095C, incubated two hours with chemical substance) of the same molecule?
**A.** 0.8

**Q.** And the “The level of expressed mRNA in the presence of chemical substance/The level of expressed mRNA in the absence of chemical substance” value (yeast gene YMR097C, incubated two hours with chemical substance)?
**A.** 1.2

**Q.** What about the “The level of expressed mRNA in the presence of chemical substance/The level of expressed mRNA in the absence of chemical substance” value (yeast gene YMR102C, incubated two hours with chemical substance) of the same molecule?
**A.** 2.4

**Q.** What about the “The level of expressed mRNA in the presence of chemical substance/The level of expressed mRNA in the absence of chemical substance” value (yeast gene YMR107W, incubated two hours with chemical substance) of the same molecule?
**A.** 0.8

**Q.** And the “The level of expressed mRNA in the presence of chemical substance/The level of expressed mRNA in the absence of chemical substance” value (yeast gene YMR180C, incubated two hours with chemical substance)?
**A.** 1.2

**Q.** What about the “The level of expressed mRNA in the presence of chemical substance/The level of expressed mRNA in the absence of chemical substance” value (yeast gene YMR184W, incubated two hours with chemical substance) of the same molecule?
**A.** 1.7

**Q.** And the “The level of expressed mRNA in the presence of chemical substance/The level of expressed mRNA in the absence of chemical substance” value (yeast gene YMR191W, incubated two hours with chemical substance)?
**A.** 1.8

**Q.** What about the “The level of expressed mRNA in the presence of chemical substance/The level of expressed mRNA in the absence of chemical substance” value (yeast gene YMR295C, incubated two hours with chemical substance) of the same molecule?
**A.** 1.1

**Q.** And the “The level of expressed mRNA in the presence of chemical substance/The level of expressed mRNA in the absence of chemical substance” value (yeast gene YMR316W, incubated two hours with chemical substance)?
**A.** 1.9

**Q.** And the “The level of expressed mRNA in the presence of chemical substance/The level of expressed mRNA in the absence of chemical substance” value (yeast gene YNL044W, incubated two hours with chemical substance)?
**A.** 1.0

**Q.** And the “The level of expressed mRNA in the presence of chemical substance/The level of expressed mRNA in the absence of chemical substance” value (yeast gene YNL074C, incubated two hours with chemical substance)?
**A.** 0.9

**Q.** And the “The level of expressed mRNA in the presence of chemical substance/The level of expressed mRNA in the absence of chemical substance” value (yeast gene YNL092W, incubated two hours with chemical substance)?
**A.** 1.1

**Q.** What about the “The level of expressed mRNA in the presence of chemical substance/The level of expressed mRNA in the absence of chemical substance” value (yeast gene YNL115C, incubated two hours with chemical substance) of the same molecule?
**A.** 0.8

**Q.** What about the “The level of expressed mRNA in the presence of chemical substance/The level of expressed mRNA in the absence of chemical substance” value (yeast gene YNL156C, incubated two hours with chemical substance) of the same molecule?
**A.** 0.9

**Q.** What about the “The level of expressed mRNA in the presence of chemical substance/The level of expressed mRNA in the absence of chemical substance” value (yeast gene YNL234W, incubated two hours with chemical substance) of the same molecule?
**A.** 1.1

**Q.** What about the “The level of expressed mRNA in the presence of chemical substance/The level of expressed mRNA in the absence of chemical substance” value (yeast gene YNL281W, incubated two hours with chemical substance) of the same molecule?
**A.** 0.7

**Q.** What about the “The level of expressed mRNA in the presence of chemical substance/The level of expressed mRNA in the absence of chemical substance” value (yeast gene YNL305C, incubated two hours with chemical substance) of the same molecule?
**A.** 1.1

**Q.** What about the “The level of expressed mRNA in the presence of chemical substance/The level of expressed mRNA in the absence of chemical substance” value (yeast gene YNR068C, incubated two hours with chemical substance) of the same molecule?
**A.** 1.3

**Q.** And the “The level of expressed mRNA in the presence of chemical substance/The level of expressed mRNA in the absence of chemical substance” value (yeast gene YOL032W, incubated two hours with chemical substance)?
**A.** 1.0

**Q.** And the “The level of expressed mRNA in the presence of chemical substance/The level of expressed mRNA in the absence of chemical substance” value (yeast gene YOL036W, incubated two hours with chemical substance)?
**A.** 1.0

**Q.** And the “The level of expressed mRNA in the presence of chemical substance/The level of expressed mRNA in the absence of chemical substance” value (yeast gene YOL047C, incubated two hours with chemical substance)?
**A.** 0.8

**Q.** What about the “The level of expressed mRNA in the presence of chemical substance/The level of expressed mRNA in the absence of chemical substance” value (yeast gene YOL071W, incubated two hours with chemical substance) of the same molecule?
**A.** 1.0

**Q.** What about the “The level of expressed mRNA in the presence of chemical substance/The level of expressed mRNA in the absence of chemical substance” value (yeast gene YOL082W, incubated two hours with chemical substance) of the same molecule?
**A.** 1.0

**Q.** And the “The level of expressed mRNA in the presence of chemical substance/The level of expressed mRNA in the absence of chemical substance” value (yeast gene YOL083W, incubated two hours with chemical substance)?
**A.** 1.2

**Q.** And the “The level of expressed mRNA in the presence of chemical substance/The level of expressed mRNA in the absence of chemical substance” value (yeast gene YOL117W, incubated two hours with chemical substance)?
**A.** 0.9

**Q.** And the “The level of expressed mRNA in the presence of chemical substance/The level of expressed mRNA in the absence of chemical substance” value (yeast gene YOL131W, incubated two hours with chemical substance)?
**A.** 0.9

**Q.** And the “The level of expressed mRNA in the presence of chemical substance/The level of expressed mRNA in the absence of chemical substance” value (yeast gene YOL150C)?
**A.** 2.9

**Q.** What about the “The level of expressed mRNA in the presence of chemical substance/The level of expressed mRNA in the absence of chemical substance” value (yeast gene YOL162W, incubated two hours with chemical substance) of the same molecule?
**A.** 1.4

**Q.** What about the “The level of expressed mRNA in the presence of chemical substance/The level of expressed mRNA in the absence of chemical substance” value (yeast gene YOR019W, incubated two hours with chemical substance) of the same molecule?
**A.** 1.0

**Q.** What about the “The level of expressed mRNA in the presence of chemical substance/The level of expressed mRNA in the absence of chemical substance” value (yeast gene YOR129C) of the same molecule?
**A.** 0.6

**Q.** What about the “The level of expressed mRNA in the presence of chemical substance/The level of expressed mRNA in the absence of chemical substance” value (yeast gene YOR197W, incubated two hours with chemical substance) of the same molecule?
**A.** 1.0

**Q.** And the “The level of expressed mRNA in the presence of chemical substance/The level of expressed mRNA in the absence of chemical substance” value (yeast gene YPL087W, incubated two hours with chemical substance)?
**A.** 1.8

**Q.** And the “The level of expressed mRNA in the presence of chemical substance/The level of expressed mRNA in the absence of chemical substance” value (yeast gene YPL196W, incubated two hours with chemical substance)?
**A.** 0.9

**Q.** What about the “The level of expressed mRNA in the presence of chemical substance/The level of expressed mRNA in the absence of chemical substance” value (yeast gene YPL206C, incubated two hours with chemical substance) of the same molecule?
**A.** 0.8

**Q.** What about the “The level of expressed mRNA in the presence of chemical substance/The level of expressed mRNA in the absence of chemical substance” value (yeast gene YPL222W, incubated two hours with chemical substance) of the same molecule?
**A.** 1.3

**Q.** What about the “The level of expressed mRNA in the presence of chemical substance/The level of expressed mRNA in the absence of chemical substance” value (yeast gene YPR023C, incubated two hours with chemical substance) of the same molecule?
**A.** 0.9

**Q.** What about the “The level of expressed mRNA in the presence of chemical substance/The level of expressed mRNA in the absence of chemical substance” value (yeast gene YPR151C, incubated two hours with chemical substance) of the same molecule?
**A.** 0.9
